In ChEMBL document CHEMBL5331122, “Structure-Activity Relationship Study of Antimicrobial Peptide PE2 Delivered Novel Linear Derivatives with Potential of Eradicating Biofilms and Low Incidence of Drug Resistance” (J Med Chem, 2023):
Converted amounts (≈) assume the structure as drawn. The source made the active and inactive calls. The rule behind the calls is not given here.

Legend:
Staphylococcus aureus [1] = test: Antibacterial activity against Staphylococcus aureus ATCC 25923 assessed as fold increase in MIC in presence of MgCl2; type: functional
Staphylococcus aureus [2] = test: Inhibition of biofilm formation in Staphylococcus aureus ATCC 25923 assessed as inhibition of biofilm formation at 1 times MIC incubated for 24 hrs by crystal violet staining based analysis; type: functional, organism-based
Escherichia coli [3] = test: Antimicrobial activity against Escherichia coli ATCC 25922 assessed as reduction in survival bacterial growth in presence of trypsin measured after 6 hrs; type: functional, organism-based
Escherichia coli [4] = test: Antibacterial activity against Escherichia coli ATCC 25922 assessed as fold increase in MIC in presence of ZnCl2; type: functional
Staphylococcus aureus [5] = test: Inhibition of biofilm formation in Staphylococcus aureus ATCC 25923 assessed as inhibition of biofilm formation at 2 times MIC incubated for 24 hrs by crystal violet staining based analysis; type: functional, organism-based
Cell membrane [6] = test: Induction of cell membrane damage in Staphylococcus aureus ATCC 25923 at 2 times MIC measured at 30 mins by propidium iodide staining based flow cytometer assay; type: subcellular
Escherichia coli [7] = test: Antimicrobial activity against Escherichia coli ATCC 25922 assessed as reduction in survival bacterial growth in presence of chymotrypsin measured after 6 hrs; type: functional, organism-based
Staphylococcus aureus [8] = test: Induction of drug resistance against Staphylococcus aureus ATCC 25923 measured upto 15 passages by sequential passaging method; type: functional
Escherichia coli [9] = test: Inhibition of biofilm formation in Escherichia coli ATCC 25922 assessed as inhibition of biofilm formation at 1/4 times MIC incubated for 24 hrs by crystal violet staining based analysis; type: functional, organism-based
Cell membrane [10] = test: Induction of outer membrane permeabilization in Escherichia coli ATCC 25922 assessed as increase in fluorescence intensity at 2 times MIC measured for 12 hrs by NPN uptake assay; type: subcellular
Staphylococcus aureus [11] = test: Antibacterial activity against Staphylococcus aureus ATCC 25923 assessed as fold increase in MIC in presence of KCl; type: functional
Staphylococcus aureus [12] = test: Antibacterial activity against Staphylococcus aureus ATCC 25923 assessed as fold increase in MIC in presence of FeCl3; type: functional
Staphylococcus aureus [13] = test: Antibiofilm activity against Staphylococcus aureus ATCC 25923 assessed as biofilm eradication at 1 times MIC incubated for 24 hrs; type: functional, organism-based
Staphylococcus aureus [14] = test: Induction of membrane morphological changes in Staphylococcus aureus ATCC 25923 assessed as appearance of blistered bacterial cells at 4 times MIC measured at 0.5 to 2 hrs by SEM analysis; type: functional, organism-based; settings: time 0.5-2 hrs
Escherichia coli [15] = test: Bactericidal activity against Escherichia coli ATCC 25922 assessed as inhibition of bacterial growth at 2 times MIC measured upto 360 mins by time-kill assay; type: functional, organism-based
Cell membrane [16] = test: Induction of outer membrane permeabilization in Escherichia coli ATCC 25922 assessed as increase in fluorescence intensity at 4 times MIC measured for 12 hrs by NPN uptake assay; type: subcellular
Staphylococcus aureus [17] = test: Bactericidal activity against Staphylococcus aureus ATCC 25923 assessed as inhibition of bacterial growth at 1 times MIC measured upto 360 mins by time-kill assay; type: functional, organism-based
Staphylococcus aureus [18] = test: Antibacterial activity against Staphylococcus aureus ATCC 25923 in presence of 10% mouse serum measured for 6 hrs; type: functional, organism-based
Staphylococcus aureus [19] = test: Antibacterial activity against Staphylococcus aureus ATCC 25923 assessed as fold increase in MIC in presence of NaCl; type: functional
Staphylococcus aureus [20] = test: Bactericidal activity against Staphylococcus aureus ATCC 25923 assessed as inhibition of bacterial growth at 1/2 times MIC measured upto 360 mins by time-kill assay; type: functional, organism-based
Escherichia coli [21] = test: Antimicrobial activity against Escherichia coli ATCC 25922 assessed as reduction in microbial growth measured for 18 hrs in presence of 512 microg/ml LPS; type: functional, organism-based
Escherichia coli [22] = test: Bactericidal activity against Escherichia coli ATCC 25922 assessed as inhibition of bacterial growth at 1/2 times MIC measured at 180 mins by time-kill assay; type: functional, organism-based
Escherichia coli [23] = test: Antibacterial activity against Escherichia coli ATCC 25922 assessed as fold increase in MIC in presence of FeCl3; type: functional
Staphylococcus aureus [24] = test: Inhibition of biofilm formation in Staphylococcus aureus ATCC 25923 assessed as inhibition of biofilm formation at 1/2 times MIC incubated for 24 hrs by crystal violet staining based analysis; type: functional, organism-based
[25] = Cytotoxicity against human HEK293T cells assessed as inhibition of cell growth incubated for 24 hrs by resazurin dye based analysis; type: toxicity, HEK-293T
Cell membrane [26] = test: Induction of outer membrane permeabilization in Escherichia coli ATCC 25922 assessed as increase in fluorescence intensity at 1 times MIC measured for 12 hrs by NPN uptake assay; type: subcellular
Cell membrane [27] = test: Induction of cell membrane damage in Staphylococcus aureus ATCC 25923 at 2 times MIC after 0.5 to 2 hrs by propidium iodide staining based flow cytometer assay; type: subcellular; settings: time 0.5-2 hrs
Escherichia coli [28] = test: Antibiofilm activity against Escherichia coli ATCC 25922 assessed as biofilm eradication at 4 times MIC incubated for 24 hrs; type: functional, organism-based
Escherichia coli [29] = test: Antibacterial activity against Escherichia coli ATCC 25922 assessed as fold increase in MIC in presence of MgCl2; type: functional
Staphylococcus aureus [30] = test: Antibacterial activity against Staphylococcus aureus ATCC 25923 assessed as bacterial growth inhibition incubated for 18 hrs by broth microdilution method; type: functional
Escherichia coli [31] = test: Antibacterial activity against Escherichia coli ATCC 25922 in presence of 10% mouse serum measured for 6 hrs; type: functional, organism-based
Escherichia coli [32] = test: Antibacterial activity against Escherichia coli ATCC 25922 assessed as fold increase in MIC in presence of KCl; type: functional
Escherichia coli [33] = test: Inhibition of biofilm formation in Escherichia coli ATCC 25922 assessed as inhibition of biofilm formation incubated for 24 hrs by crystal violet staining based analysis; type: functional, organism-based
Staphylococcus aureus [34] = test: Antibiofilm activity against Staphylococcus aureus ATCC 25923 assessed as biofilm eradication at 4 times MIC incubated for 24 hrs; type: functional, organism-based
Escherichia coli [35] = test: Inhibition of biofilm formation in Escherichia coli ATCC 25922 assessed as inhibition of biofilm formation at 1 to 2 times MIC incubated for 24 hrs by crystal violet staining based analysis; type: functional, organism-based
Staphylococcus aureus [36] = test: Antibiofilm activity against Staphylococcus aureus ATCC 25923 assessed as biofilm eradication at 8 times MIC incubated for 24 hrs; type: functional, organism-based
Escherichia coli [37] = test: Antibacterial activity against Escherichia coli ATCC 25922 assessed as fold increase in MIC in presence of NaCl; type: functional
Escherichia coli [38] = test: Induction of membrane morphological changes in Escherichia coli ATCC 25922 at 4 times MIC measured at 0.5 to 2 hrs by SEM analysis; type: functional, organism-based; settings: time 0.5-2 hrs
Staphylococcus aureus [39] = test: Induction of membrane morphological changes in Staphylococcus aureus ATCC 25923 assessed as appearance of adherent bacterial cells at 4 times MIC measured at 0.5 to 2 hrs by SEM analysis; type: functional, organism-based; settings: time 0.5-2 hrs
Staphylococcus aureus [40] = test: Inhibition of biofilm formation in Staphylococcus aureus ATCC 25923 assessed as inhibition of biofilm formation at 1/4 times MIC incubated for 24 hrs by crystal violet staining based analysis; type: functional, organism-based
Escherichia coli [41] = test: Antibiofilm activity against Escherichia coli ATCC 25922 assessed as biofilm eradication at 1 times MIC incubated for 24 hrs; type: functional, organism-based
Pseudomonas aeruginosa = test: Antibacterial activity against Pseudomonas aeruginosa ATCC 27853 assessed as bacterial growth inhibition incubated for 18 hrs by broth microdilution method; type: functional

Which results are given for CCCCCCCC(=O)N[C@@H](CCN)C(=O)N[C@H](C(=O)N[C@@H](CCN)C(=O)N[C@H](Cc1ccccc1)C(=O)N[C@@H](CC(C)C)C(=O)N[C@@H](CCN)C(=O)N[C@@H](C(=O)N[C@@H](CC(C)C)C(=O)N[C@@H](Cc1ccc(O)cc1)C(N)=O)C(C)C)[C@@H](C)CC?
fold change (FC) (Staphylococcus aureus [1]): <=2; inhibition (Staphylococcus aureus [2]): Active; Activity (Escherichia coli [3]): Active; fold change (FC) (Escherichia coli [4]): <=2; inhibition (Staphylococcus aureus [5]): Active; Activity (Cell membrane [6]): inactive; Activity (Escherichia coli [7]): Active; Activity (Staphylococcus aureus [8]): Active; inhibition (Escherichia coli [9]): inactive; Activity (Cell membrane [10]): inactive; fold change (FC) (Staphylococcus aureus [11]): <=2; fold change (FC) (Staphylococcus aureus [12]): <=2; Activity (Staphylococcus aureus [13]): inactive; Activity (Staphylococcus aureus [14]): Active; Activity (Escherichia coli [15]): Active; Activity (Cell membrane [16]): Active; Activity (Staphylococcus aureus [17]): inactive; Activity (Staphylococcus aureus [18]): Active; fold change (FC) (Staphylococcus aureus [19]): <=2; Activity (Staphylococcus aureus [20]): inactive; Activity (Escherichia coli [21]): inactive; Activity (Escherichia coli [22]): Active; fold change (FC) (Escherichia coli [23]): <=2; inhibition (Staphylococcus aureus [24]): Active; IC50 at 24 h [25]: 24.2 µg/mL (≈ 20.3 µM); Activity (Cell membrane [26]): inactive; Activity (Cell membrane [27]): Active; Activity (Escherichia coli [28]): Active; fold change (FC) (Escherichia coli [29]): <=2; MIC (Staphylococcus aureus [30]): 8 µg/mL (≈ 6.71 µM); Activity (Escherichia coli [31]): Active; fold change (FC) (Escherichia coli [32]): <=2; inhibition (Escherichia coli [33]): Dose-Dependent Effect; Activity (Staphylococcus aureus [34]): Active; inhibition (Escherichia coli [35]): Active; Activity (Staphylococcus aureus [36]): Active; fold change (FC) (Escherichia coli [37]): <=2; Activity (Escherichia coli [38]): Active; Activity (Staphylococcus aureus [39]): Active; inhibition (Staphylococcus aureus [40]): Active; Activity (Escherichia coli [41]): Active; MIC (Pseudomonas aeruginosa): 4 µg/mL (≈ 3.35 µM)
